Measured values taken from ChEMBL document CHEMBL4052759, “Discovery of DS79182026: A potent orally active hepcidin production inhibitor” (Bioorg Med Chem Lett, 2017).
Values belong to the molecule of their own block, whether it stands above or below them.

Columns and labels:
[1] = target: Insulin-like growth factor 1 receptor (Homo sapiens) (UniProt P08069); assay: Inhibition of IGF1R (unknown origin) at 0.078 uM relative to control
[2] = target: Casein kinase I isoform epsilon (Homo sapiens) (UniProt P49674); assay: Inhibition of CK1-epsilon (unknown origin) at 0.49 uM relative to control
[3] = target: Protein kinase C epsilon type (Homo sapiens) (UniProt Q02156); assay: Inhibition of PKC-epsilon (unknown origin) at 0.49 uM relative to control
[4] = target: Serine/threonine-protein kinase Sgk3 (Homo sapiens) (UniProt Q96BR1); assay: Inhibition of SGK3 (unknown origin) at 0.49 uM relative to control
[5] = target: T1, CDK4/Cyclin D3 (Homo sapiens) (UniProt P11802+P30281); assay: Inhibition of CDK4/CyclinD3 (unknown origin) at 0.49 uM relative to control; assay type: protein-complex assay
[6] = target: Vascular endothelial growth factor receptor 3 (Homo sapiens) (UniProt P35916); assay: Inhibition of FLT4 (unknown origin) at 0.49 uM relative to control
[7] = target: Serine/threonine-protein kinase BRSK2 (Homo sapiens) (UniProt Q8IWQ3); assay: Inhibition of BRSK2 (unknown origin) at 0.49 uM relative to control
[8] = target: RAC-alpha serine/threonine-protein kinase (Homo sapiens) (UniProt P31749); assay: Inhibition of AKT1 (unknown origin) at 0.45 uM relative to control
[9] = Metabolic stability in mouse liver microsomes assessed as […] by measuring parent compound remaining at 1 uM after 0.5 hrs by LC-MS/MS analysis; assay type: ADME; settings: read-out: Stability
[10] = target: RAC-gamma serine/threonine-protein kinase (Homo sapiens) (UniProt Q9Y243); assay: Inhibition of AKT3 (unknown origin) at 0.45 uM relative to control
[11] = target: Testis-specific serine/threonine-protein kinase 1 (Homo sapiens) (UniProt Q9BXA7); assay: Inhibition of TSSK1 (unknown origin) at 0.45 uM relative to control
[12] = target: Testis-specific serine/threonine-protein kinase 2 (Homo sapiens) (UniProt Q96PF2); assay: Inhibition of TSSK2 (unknown origin) at 0.45 uM relative to control
[13] = target: Casein kinase I isoform gamma-3 (Homo sapiens) (UniProt Q9Y6M4); assay: Inhibition of CSNK1G3 (unknown origin) at 0.45 uM relative to control
[14] = target: T1, CDK4/Cyclin D3 (Homo sapiens); assay: Inhibition of CDK4/CyclinD3 (unknown origin) at 0.45 uM relative to control; assay type: protein-complex assay
[15] = target: Ephrin type-A receptor 1 (Homo sapiens) (UniProt P21709); assay: Inhibition of EPHA1 (unknown origin) at 0.45 uM relative to control
[16] = target: Ephrin type-A receptor 5 (Homo sapiens) (UniProt P54756); assay: Inhibition of EPHA5 (unknown origin) at 0.45 uM relative to control
[17] = target: Aurora kinase B (Homo sapiens) (UniProt Q96GD4); assay: Inhibition of AurB (unknown origin) at 0.45 uM relative to control
[18] = target: AMPK alpha2/beta1/gamma1 (Homo sapiens) (UniProt P54646+P54619+Q9Y478); assay: Inhibition of AMPK-alpha2/beta1/gamma1 (unknown origin) at 0.45 uM relative to control; assay type: protein-complex assay
[19] = target: Calcium/calmodulin-dependent protein kinase type 1D (Homo sapiens) (UniProt Q8IU85); assay: Inhibition of CamK1d (unknown origin) at 0.45 uM relative to control
[20] = target: T2, Calcium/calmodulin-dependent protein kinase type IV (Homo sapiens) (UniProt Q16566); assay: Inhibition of CAMK4 (unknown origin) at 0.45 uM relative to control
T2 sequence (whole entry): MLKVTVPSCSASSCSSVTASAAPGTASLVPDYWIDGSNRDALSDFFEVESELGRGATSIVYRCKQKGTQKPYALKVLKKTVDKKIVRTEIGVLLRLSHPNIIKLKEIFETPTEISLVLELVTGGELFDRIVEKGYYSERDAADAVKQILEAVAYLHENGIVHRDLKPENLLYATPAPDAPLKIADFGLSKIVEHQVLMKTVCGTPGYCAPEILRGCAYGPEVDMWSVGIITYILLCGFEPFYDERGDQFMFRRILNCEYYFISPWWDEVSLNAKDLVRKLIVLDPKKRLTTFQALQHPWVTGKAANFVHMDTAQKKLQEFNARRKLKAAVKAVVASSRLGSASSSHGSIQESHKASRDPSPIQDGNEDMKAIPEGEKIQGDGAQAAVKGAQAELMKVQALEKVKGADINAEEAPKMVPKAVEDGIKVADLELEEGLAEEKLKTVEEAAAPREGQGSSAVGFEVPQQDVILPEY

[21] = target: Death-associated protein kinase 1 (Homo sapiens) (UniProt P53355); assay: Inhibition of DAPK1 (unknown origin) at 0.45 uM relative to control
[22] = target: Dual specificity protein kinase CLK3 (Homo sapiens) (UniProt P49761); assay: Inhibition of CLK3 (unknown origin) at 0.45 uM relative to control
[23] = target: Glycogen synthase kinase-3 alpha (Homo sapiens) (UniProt P49840); assay: Inhibition of GSK3-alpha (unknown origin) at 0.45 uM relative to control
[24] = target: Glycogen synthase kinase-3 beta (Homo sapiens) (UniProt P49841); assay: Inhibition of GSK3b (unknown origin) at 0.45 uM relative to control
[25] = target: Homeodomain-interacting protein kinase 4 (Homo sapiens) (UniProt Q8NE63); assay: Inhibition of HIPK4 (unknown origin) at 0.45 uM relative to control
[26] = target: Misshapen-like kinase 1 (Homo sapiens) (UniProt Q8N4C8); assay: Inhibition of MINK (unknown origin) at 0.45 uM relative to control
[27] = target: Tyrosine-protein kinase FRK (Homo sapiens) (UniProt P42685); assay: Inhibition of FRK (unknown origin) at 0.45 uM relative to control
[28] = system: Platelet-derived growth factor receptor alpha (Homo sapiens), P16234 [D842V]; assay: Inhibition of PDGFRA D842V mutant (unknown origin) at 0.45 uM relative to control
[29] = target: Maternal embryonic leucine zipper kinase (Homo sapiens) (UniProt Q14680); assay: Inhibition of MELK (unknown origin) at 0.45 uM relative to control
[30] = target: NUAK family SNF1-like kinase 1 (Homo sapiens) (UniProt O60285); assay: Inhibition of NuaK1 (unknown origin) at 0.45 uM relative to control
[31] = target: Tyrosine-protein kinase ABL2 (Homo sapiens) (UniProt P42684); assay: Inhibition of Arg (unknown origin) at 0.45 uM relative to control
[32] = target: Epidermal growth factor receptor (Homo sapiens) (UniProt P00533); assay: Inhibition of EGFR (unknown origin) at 0.45 uM relative to control
[33] = target: Proto-oncogene tyrosine-protein kinase receptor Ret (Homo sapiens) (UniProt P07949); assay: Inhibition of RET (unknown origin) at 0.45 uM relative to control

Sequence of Dual specificity protein kinase CLK3 (Homo sapiens) (P49761 whole entry, looked up): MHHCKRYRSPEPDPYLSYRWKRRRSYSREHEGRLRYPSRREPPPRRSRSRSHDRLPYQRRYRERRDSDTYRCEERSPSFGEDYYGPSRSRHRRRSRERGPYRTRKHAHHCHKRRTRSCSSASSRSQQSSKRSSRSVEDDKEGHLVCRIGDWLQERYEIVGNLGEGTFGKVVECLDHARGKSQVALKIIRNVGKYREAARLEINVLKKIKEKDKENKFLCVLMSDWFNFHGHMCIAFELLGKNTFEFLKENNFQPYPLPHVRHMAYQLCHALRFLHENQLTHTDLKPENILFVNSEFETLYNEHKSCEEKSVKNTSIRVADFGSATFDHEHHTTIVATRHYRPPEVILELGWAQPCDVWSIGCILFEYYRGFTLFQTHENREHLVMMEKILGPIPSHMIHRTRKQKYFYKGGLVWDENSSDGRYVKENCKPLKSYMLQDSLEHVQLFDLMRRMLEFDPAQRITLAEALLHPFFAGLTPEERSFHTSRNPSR
Sequence of Tyrosine-protein kinase FRK (Homo sapiens) (P42685 whole entry): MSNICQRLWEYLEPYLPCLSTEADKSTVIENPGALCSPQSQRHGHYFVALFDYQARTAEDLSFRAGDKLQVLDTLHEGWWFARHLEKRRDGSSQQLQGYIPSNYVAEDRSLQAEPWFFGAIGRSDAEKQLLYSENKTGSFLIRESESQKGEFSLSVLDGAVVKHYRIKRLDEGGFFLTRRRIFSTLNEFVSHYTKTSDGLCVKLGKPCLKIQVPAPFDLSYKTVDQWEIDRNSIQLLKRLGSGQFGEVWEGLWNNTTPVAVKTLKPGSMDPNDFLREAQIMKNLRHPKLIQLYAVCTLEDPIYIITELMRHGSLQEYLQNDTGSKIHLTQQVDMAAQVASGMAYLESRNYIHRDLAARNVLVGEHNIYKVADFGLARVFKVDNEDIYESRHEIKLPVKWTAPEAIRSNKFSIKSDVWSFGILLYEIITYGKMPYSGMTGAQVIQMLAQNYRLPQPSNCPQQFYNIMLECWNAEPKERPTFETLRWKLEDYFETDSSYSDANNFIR
Sequence of Serine/threonine-protein kinase Sgk3 (Homo sapiens) (Q96BR1 whole entry): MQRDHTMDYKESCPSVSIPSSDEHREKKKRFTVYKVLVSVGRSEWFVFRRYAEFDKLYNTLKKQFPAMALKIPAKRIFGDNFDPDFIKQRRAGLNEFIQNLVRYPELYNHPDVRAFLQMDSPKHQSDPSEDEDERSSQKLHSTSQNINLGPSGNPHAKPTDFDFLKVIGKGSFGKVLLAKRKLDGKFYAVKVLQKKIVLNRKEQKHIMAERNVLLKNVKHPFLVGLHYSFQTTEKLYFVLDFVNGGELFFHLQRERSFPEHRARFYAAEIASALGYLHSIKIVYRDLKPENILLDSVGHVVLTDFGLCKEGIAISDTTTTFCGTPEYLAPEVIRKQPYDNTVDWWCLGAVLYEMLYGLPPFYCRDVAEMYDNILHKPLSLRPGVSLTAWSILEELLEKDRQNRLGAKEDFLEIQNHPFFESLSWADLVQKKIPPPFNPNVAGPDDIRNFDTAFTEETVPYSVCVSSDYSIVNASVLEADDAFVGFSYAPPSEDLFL
Sequence of Glycogen synthase kinase-3 beta (Homo sapiens) (P49841 whole entry, looked up): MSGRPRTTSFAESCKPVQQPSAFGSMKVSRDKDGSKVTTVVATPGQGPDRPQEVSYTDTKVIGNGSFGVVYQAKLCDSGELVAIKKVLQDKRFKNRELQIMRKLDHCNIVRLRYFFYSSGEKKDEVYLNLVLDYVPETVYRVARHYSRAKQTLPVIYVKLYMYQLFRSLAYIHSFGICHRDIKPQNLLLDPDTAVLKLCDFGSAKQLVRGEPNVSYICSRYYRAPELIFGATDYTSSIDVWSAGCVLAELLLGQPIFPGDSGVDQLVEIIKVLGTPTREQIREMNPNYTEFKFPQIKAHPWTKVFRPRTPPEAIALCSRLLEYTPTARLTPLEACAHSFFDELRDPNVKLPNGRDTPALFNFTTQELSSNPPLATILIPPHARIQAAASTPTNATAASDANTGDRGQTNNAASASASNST
Sequence of Testis-specific serine/threonine-protein kinase 2 (Homo sapiens) (Q96PF2 whole entry, canonical isoform): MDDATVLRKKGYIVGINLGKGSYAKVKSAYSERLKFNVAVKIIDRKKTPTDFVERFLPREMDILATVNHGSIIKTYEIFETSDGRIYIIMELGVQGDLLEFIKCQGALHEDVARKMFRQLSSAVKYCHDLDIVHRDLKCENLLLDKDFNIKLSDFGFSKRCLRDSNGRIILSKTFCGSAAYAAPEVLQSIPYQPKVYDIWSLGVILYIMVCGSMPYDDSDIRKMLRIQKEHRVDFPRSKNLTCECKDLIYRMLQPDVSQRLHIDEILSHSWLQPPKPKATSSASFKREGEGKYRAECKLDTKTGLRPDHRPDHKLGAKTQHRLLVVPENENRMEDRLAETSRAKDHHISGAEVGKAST
Sequence of Protein kinase C epsilon type (Homo sapiens) (Q02156 whole entry): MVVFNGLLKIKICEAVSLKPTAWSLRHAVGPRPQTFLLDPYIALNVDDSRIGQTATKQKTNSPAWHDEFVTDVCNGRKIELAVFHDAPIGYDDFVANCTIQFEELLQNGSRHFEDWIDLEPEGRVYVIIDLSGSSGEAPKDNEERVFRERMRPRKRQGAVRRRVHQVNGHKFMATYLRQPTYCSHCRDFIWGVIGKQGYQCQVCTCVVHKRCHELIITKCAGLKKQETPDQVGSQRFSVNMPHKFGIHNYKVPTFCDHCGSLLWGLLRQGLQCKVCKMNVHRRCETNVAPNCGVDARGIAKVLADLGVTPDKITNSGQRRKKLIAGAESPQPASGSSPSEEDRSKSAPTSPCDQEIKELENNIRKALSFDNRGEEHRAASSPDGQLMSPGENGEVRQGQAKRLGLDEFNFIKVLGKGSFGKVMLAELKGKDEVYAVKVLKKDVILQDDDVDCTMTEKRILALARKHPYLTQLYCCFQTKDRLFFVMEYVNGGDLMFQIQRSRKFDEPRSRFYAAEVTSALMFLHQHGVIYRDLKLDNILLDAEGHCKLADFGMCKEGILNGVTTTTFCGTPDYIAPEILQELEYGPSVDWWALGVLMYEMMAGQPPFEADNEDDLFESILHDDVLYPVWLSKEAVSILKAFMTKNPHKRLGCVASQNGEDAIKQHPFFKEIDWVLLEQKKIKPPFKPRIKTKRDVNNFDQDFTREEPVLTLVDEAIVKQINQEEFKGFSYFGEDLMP
Sequence of AMPK alpha2/beta1/gamma1 (Homo sapiens) (P54619 whole entry partner): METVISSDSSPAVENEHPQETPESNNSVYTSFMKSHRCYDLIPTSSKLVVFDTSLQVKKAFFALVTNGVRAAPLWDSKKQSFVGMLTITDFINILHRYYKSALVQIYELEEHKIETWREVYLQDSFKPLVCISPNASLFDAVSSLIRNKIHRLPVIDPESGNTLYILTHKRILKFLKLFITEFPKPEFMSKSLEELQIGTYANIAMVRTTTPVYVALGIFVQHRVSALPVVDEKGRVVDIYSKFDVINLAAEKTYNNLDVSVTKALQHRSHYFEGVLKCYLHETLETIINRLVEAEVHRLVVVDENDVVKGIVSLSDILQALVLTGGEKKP
Sequence of AMPK alpha2/beta1/gamma1 (Homo sapiens) (P54646 whole entry): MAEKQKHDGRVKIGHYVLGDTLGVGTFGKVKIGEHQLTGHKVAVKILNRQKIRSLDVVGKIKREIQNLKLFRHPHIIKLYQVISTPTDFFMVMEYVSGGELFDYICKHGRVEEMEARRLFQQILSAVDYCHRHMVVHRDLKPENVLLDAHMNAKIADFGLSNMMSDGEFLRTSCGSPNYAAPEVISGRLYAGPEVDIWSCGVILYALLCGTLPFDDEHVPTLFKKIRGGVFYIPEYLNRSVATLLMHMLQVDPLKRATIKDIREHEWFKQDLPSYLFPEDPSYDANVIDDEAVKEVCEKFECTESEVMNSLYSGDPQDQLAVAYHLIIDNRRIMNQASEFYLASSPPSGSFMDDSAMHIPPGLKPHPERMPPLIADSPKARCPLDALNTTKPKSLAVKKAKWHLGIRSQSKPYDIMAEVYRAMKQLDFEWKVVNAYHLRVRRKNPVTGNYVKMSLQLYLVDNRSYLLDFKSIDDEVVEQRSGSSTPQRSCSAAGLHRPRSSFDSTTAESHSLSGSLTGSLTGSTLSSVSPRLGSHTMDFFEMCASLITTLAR
Sequence of AMPK alpha2/beta1/gamma1 (Homo sapiens) (Q9Y478 2-270 partner limits assumed): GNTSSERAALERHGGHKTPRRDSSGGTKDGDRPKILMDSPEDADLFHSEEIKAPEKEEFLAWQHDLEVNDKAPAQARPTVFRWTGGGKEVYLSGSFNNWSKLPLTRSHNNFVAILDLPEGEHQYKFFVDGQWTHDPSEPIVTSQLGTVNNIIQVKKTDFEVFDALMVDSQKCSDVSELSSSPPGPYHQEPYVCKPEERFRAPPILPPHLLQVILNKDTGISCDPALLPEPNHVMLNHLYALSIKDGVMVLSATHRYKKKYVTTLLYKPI
Sequence of RAC-gamma serine/threonine-protein kinase (Homo sapiens) (Q9Y243 whole entry): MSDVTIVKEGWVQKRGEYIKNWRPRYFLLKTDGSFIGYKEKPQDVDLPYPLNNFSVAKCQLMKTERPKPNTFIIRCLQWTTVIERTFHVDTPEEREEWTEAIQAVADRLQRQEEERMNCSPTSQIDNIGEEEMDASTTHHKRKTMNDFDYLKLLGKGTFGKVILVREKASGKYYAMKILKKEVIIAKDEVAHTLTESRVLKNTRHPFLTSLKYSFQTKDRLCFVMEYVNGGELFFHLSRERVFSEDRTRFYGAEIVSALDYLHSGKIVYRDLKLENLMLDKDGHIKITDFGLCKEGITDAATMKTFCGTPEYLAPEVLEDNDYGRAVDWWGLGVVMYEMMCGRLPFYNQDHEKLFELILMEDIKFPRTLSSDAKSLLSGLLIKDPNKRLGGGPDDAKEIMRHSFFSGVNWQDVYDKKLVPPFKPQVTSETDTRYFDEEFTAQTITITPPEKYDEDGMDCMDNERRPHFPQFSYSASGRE

- inhibition [1]: 2.3%
Structure (SMILES): COC(=O)Nc1noc2cc(-c3c(-c4ccccn4)n[nH]c3C)ccc12

- inhibition [2]: 1%
- inhibition [3]: 4.7%
- inhibition [4]: 1.3%
- inhibition [5]: -6.7%
- inhibition [6]: -2.7%
- inhibition [7]: -2.3%
Structure (SMILES): Cc1[nH]nc(C2CC2)c1-c1ccc2c(NC(=O)C3CC3)noc2c1

- inhibition [8]: -1.7%
- remaining at 0.5 h, 1 µM [9]: 94%
- inhibition [10]: 1.3%
- inhibition [11]: -1%
- inhibition [12]: -3%
- inhibition [13]: -0.7%
- inhibition [14]: -8.3%
- inhibition [15]: 21%
- inhibition [16]: 3%
- inhibition [17]: 11%
- inhibition [18]: 26%
- inhibition [19]: 0.7%
- inhibition [20]: 0%
- inhibition [22]: 6.7%
- inhibition [23]: -1%
- inhibition [24]: 1.3%
- inhibition [25]: 1.3%
- inhibition [26]: 83.7%
- inhibition [27]: 31.3%
- inhibition [28]: 79.3%
- inhibition [29]: 38%
- inhibition [30]: 13%
- inhibition [31]: 66.3%
- inhibition [32]: -6%
- inhibition [33]: 59%
Structure (SMILES): Cc1n[nH]c(C)c1-c1ccc2c(NC(=O)c3ccc(N4CCN(C)CC4)cc3)n[nH]c2c1
- inhibition [21]: -1.3%
